From patent US9221873B1, “Short-chain peptide capable of controlling spermatozoa fertilization performance” (NATIONAL TAIWAN UNIVERSITY, priority 2014, dated 2015)

How the values were obtained:
mouse spermatozoa = assay: Measuring the [Ca2+]i in spermatozoa (Fluo-4 AM fluorescence); assay type: cell-based; details: FIG. 1; for [Ca2+]i increases by (change in fluorescent intensity, (F'-F0)/F0): plateau phase 27-30 minutes
Description: Spermatozoa are prepared for measuring changes in the intracellular concentration of free calcium ions ([Ca^2]i). Modified HEPES medium (120 mM of NaCl, 2 mM of KCl, 1.2 mM of MgSO4.7H2O, 0.36 mM of NaH2PO4, 15 mM of NaHCO3, 10 mM of HEPES, 5.6 mM of glucose, 1.1 mM of sodium pyruvate, 18.5 mM of sucrose, 100 IU/ml of penicillin, and 100 μg/ml of streptomycin), spermatozoa culture medium, is pre-incubated in incubator with 5% CO2 at 37° C. for 24 hours before using to adjust the medium pH ranges between 7.3 and 7.4. The cauda epididymis is cut into several pieces, incubated in the medium at 37° C. for 20 minutes, put on 1 ml of 75% (v/v) Percoll solution, and centrifuged at 300×g for 30 minutes to isolate higher motility spermatozoa for [Ca^2+]i measurement experiment.
Changes in the [Ca^2+]i in uncapacitated spermatozoa are measured. Spermatozoa (1×10^8 cells per milliliter) is incubated in modified HEPES medium, containing 15 μM of Fluo-4 AM, in the darkness at 37° C. for 45 minutes. Fluo-4 AM is a fluorescent Ca^2+ indicator capable of penetrating cell membranes. Then, the spermatozoa are washed thrice by 100×g centrifugation at room temperature for 5 minutes to remove the residual dye. The sperm cell pellet is suspended in a modified HEPES medium, containing 1.8 mM of CaCl2, and the cell concentration is adjusted to 5×10^6 cells per milliliter. […] The changes of fluorescent intensity are measured with the Synergy H1 Hybrid Multi-Mode Microplate Reader (Bio-Tek, Winooski, Vt., USA) at 37° C. via an excitation wavelength of 485 nm and an emission wavelength of 520 nm. […] Changes in [Ca^2+]i are calculated with the equation (F′−F0)/F0 (%), wherein F′ denotes the fluorescent intensity measured at different time points during the experiment, and F0 denotes the average of fluorescent intensity measured 0 to 5 minutes before adding kisspeptin-10. Last but not least, the average change in the fluorescent intensity during the plateau phase (27˜30 minutes) of [Ca^2+]i is calculated.

spermatozoa = assay: IVF test (in vitro fertilization, success fertilization rate); assay type: cell-based, mouse; details: spermatozoa incubated with 50 μM during capacitation, 2 hours, 37° C.; control group larger than 80%; binds KISS1R; FIG. 2
Description: In the in vitro fertilization experiment, spermatozoa isolated from cauda epididymis are incubated in HTF (human tubal fluid) medium (Merck Millipore) at 37° C. for 20 minutes and then diluted the cell concentration to 1×10^6 spermatozoa per milliliter.
The uncapacitated spermatozoa is incubated in HTF medium and then treated with peptide 234 during capacitation step, such that kisspeptin signal effects on final fertilization step is evaluated. The 0.9% saline is added to the control group to substitute for the peptide 234 solution. In detail, spermatozoa (1×10^6 cell per milliliter) are incubated in a capacitation-condition medium with 50 μM peptide 234 or saline at 37° C. for 2 hours. Then, the fertilization process begins with the introduction of cumulus-oocyte complexes (COCs) into the culture medium and incubation at 37° C. for 6 hours. The oocytes are washed thrice and incubated in KSOM+AAs culture medium (potassium simplex optimized medium plus amino acids, Merk Millipore) for 24 hours. The success fertilization rate is calculated according to the ratio of the number of two-cell embryos to the total number of oocytes. […]

Row | Substance | [Ca2+]i increases by (change in fluorescent intensity, (F'-F0)/F0) (mouse spermatozoa; mouse spermatozoa treated with 50 μM) [%] | [Ca2+]i increases by (change in fluorescent intensity, (F'-F0)/F0) (mouse spermatozoa; mouse spermatozoa treated with 100 μM) [%] | [Ca2+]i change (fluorescent intensity), in words (mouse spermatozoa; mouse spermatozoa treated with 25, 50 and 100 μM) | success fertilization rate (two-cell embryos / total oocytes) (spermatozoa)
1 | kisspeptin 10: short-chain peptide kisspeptin-10 (SEQ ID NO:6), rodent expressed kisspeptin, purchased from Kelowna international Scientific (YNWNSFGLRY; Rodent expressed kisspeptin-10) | 85.5±14.4 | 129.9±24.9 | increases | 
2 | peptide 234: kisspeptin antagonist peptide 234 (SEQ ID NO:10), binds to KISS1R on the spermatozoa (ANWNGFGWRF; Kisspeptin antagonist peptide 234) |  |  |  | less than 60%
